# Laboratory results published in patent publication US20110245242A1, “Heterocyclically Substituted Anilinopyrimides” (Bayer CropScience AG, priority 2008, published 2011).
# Key:
# [1] = log P by HPLC on reversed-phase columns (C 18), method [a], acidic range pH 2.3; format: physicochemical; details: for chromatographic logP: pH 2.3, log P (pH 2.3)
# Procedure: The log P values were measured in accordance with EEC Directive 79/831 Annex V.A8 by HPLC (High Performance Liquid Chromatography) on reversed-phase columns (C 18) using the methods below: [a] The determination was carried out in the acidic range at pH 2.3 using the mobile phases 0.1% aqueous phosphoric acid and acetronitrile linear gradient from 10% acetonitrile to 95% acetronitrile.
# [2] = log P by LC-MS, method [b], acid range pH 2.7; format: physicochemical; details: pH 2.7
# Procedure: The log P values were measured in accordance with EEC Directive 79/831 Annex V.A8 by HPLC (High Performance Liquid Chromatography) on reversed-phase columns (C 18) using the methods below:
# [b] The LC-MS determination in the acid range was carried out at pH 2.7 using the mobile phases 0.1% aqueous formic acid and acetonitrile (contains 0.1% formic acid)
# linear gradient from 10% acetonitrile to 95% acetonitrile.
SMILES,chromatographic logP [1],log p [2],other results
O=C1CCCN1c1cc([N+](=O)[O-])ccc1F [1-(2-Fluoro-5-nitrophenyl)pyrrolidin-2-one],1.47,–,–
"Nc1cc(N2C(=O)CCC2=O)ccc1Cl [1-(3-Amino-4-chlorophenyl)pyrrolidine-2,5-dione]",0.79,–,–
COc1cc(N)cc(N2CCCC2=O)c1 [1-(3-Amino-5-methoxyphenyl)pyrrolidin-2-one],0.6,–,–
"CC1(C)CC(=O)N(c2cccc(N)c2)C1=O [1-(3-Aminophenyl)-3,3-dimethylpyrrolidine-2,5-dione]",0.86,–,–
Nc1cccc(N2C(=O)CCC2C(F)(F)F)c1 (stereo not shown) [1-(3-Aminophenyl)-5-(trifluoromethyl)pyrrolidin-2-one],1.07,–,–
CCC1CC(C)C(=O)N1c1cccc(N)c1 (stereo not shown) [1-(3-Aminophenyl)-5-ethyl-3-methylpyrrolidin-2-one],1.31,–,–
CCC1CCC(=O)N1c1cccc(N)c1 (stereo not shown) [1-(3-Aminophenyl)-5-ethylpyrrolidin-2-one],0.94,–,–
CC1CCC(=O)N1c1cccc(N)c1 (stereo not shown) [1-(3-Aminophenyl)-5-methylpyrrolidin-2-one],0.52,–,–
COc1cc(N2CCCC2=O)cc([N+](=O)[O-])c1 [1-(3-Methoxy-5-nitrophenyl)pyrrolidin-2-one],1.99,–,–
Nc1ccc(F)c(N2CCCC2=O)c1 [1-(5-Amino-2-fluorophenyl)pyrrolidin-2-one],0.31,–,–
"CC1(C)CC(=O)N(c2cccc([N+](=O)[O-])c2)C1=O [3,3-Dimethyl-1-(3-nitrophenyl)pyrrolidine-2,5-dione]",2.01,–,–
"Nc1cccc(N2CCOC2=O)c1 [3-(3-Aminophenyl)-1,3-oxazolidin-2-one]",-0.18,–,–
"CC1CN(c2cccc(N)c2)C(=O)O1 (stereo not shown) [3-(3-Aminophenyl)-5-methyl-1,3-oxazolidin-2-one]",0.33,–,–
CC1CCN(Cc2cccc([N+](=O)[O-])c2)C1=O (stereo not shown) [3-Methyl-1-(3-nitrobenzyl)pyrrolidin-2-one],1.82,–,–
COc1cc(NC(=O)CCCCl)cc([N+](=O)[O-])c1 [4-Chloro-N-(3-methoxy-5-nitrophenyl)butanamide],2.46,–,–
"Clc1cnc(Nc2ccc(I)cc2)nc1NC1CC1 [5-Chloro-N^4-cyclopropyl-N^2-(4-iodophenyl)pyrimidine-2,4-diamine]",2.73,–,–
CCC1CC(C)C(=O)N1 (stereo not shown) [5-Ethyl-3-methylpyrrolidin-2-one],1.02,–,log P (pH 2.3) ([1]; pH 2.3): 0.96
"CC(C)[C@@H]1COC(=O)N1c1cccc(N)c1 [(4R)-3-(3-Aminophenyl)-4-isopropyl-1,3-oxazolidin-2-one]",1.18,–,–
"C[C@@H]1COC(=O)N1c1cccc(N)c1 [(4R)-3-(3-Aminophenyl)-4-methyl-1,3-oxazolidin-2-one]",0.27,–,–

SMILES,chromatographic logP [1],log p [2],other results
CCOC(=O)[C@@H]1CCC(=O)N1c1cccc(N)c1 [Ethyl 1-(3-aminophenyl)-5-oxo-L-prolinate],0.84,–,–
COCC(C)Nc1nc(Nc2cccc(N3CCCC3=O)c2)ncc1Cl (stereo not shown) [Example 2],–,–,log p ([1]; pH 2.3): 1.53[a]
CCC(C)Nc1nc(Nc2ccc(N3CCCC3=O)cc2)ncc1Cl (stereo not shown) [Example 7],–,–,log p ([1]; pH 2.3): 1.65[a]
CC1CCN(c2cccc(Nc3ncc(Cl)c(NC4CC4)n3)c2)C1=O (stereo not shown) [Example 26],–,–,log p ([1]; pH 2.3): 1.76[a]
CCC1COC(=O)N1c1cccc(Nc2ncc(Br)c(NC3CC3)n2)c1 (stereo not shown) [Example 32],–,–,log p ([1]; pH 2.3): 2.01[a]
CNc1nc(Nc2cccc(N3CCCC3=O)c2)ncc1Cl [Example 38],–,–,log p ([1]; pH 2.3): 1.05[a]
O=C1COCCN1c1cccc(Nc2ncc(Cl)c(NCC(F)(F)F)n2)c1 [Example 173],–,1.73[b],–
CC1CCC(=O)N1c1cccc(Nc2ncc(Cl)c(NCC(F)(F)F)n2)c1 (stereo not shown) [Example 174],–,2.16[b],–
O=C1OCCN1c1cccc(Nc2ncc(Cl)c(NCC(F)(F)F)n2)c1 [Example 175],–,2.01[b],–
CC1COC(=O)N1c1cccc(Nc2ncc(Cl)c(N(C)C3CC3)n2)c1 (stereo not shown) [Example 176],–,2.29[b],–
CC1COC(=O)N1c1ccc(Nc2ncc(Cl)c(N(C)C3CC3)n2)cc1 (stereo not shown) [Example 179],–,2.16[b],–
CC1CCC(=O)N1c1cccc(Nc2ncc(Cl)c(N(C)C3CC3)n2)c1 (stereo not shown) [Example 180],–,2.26[b],–
CC1CC(=O)N(c2cccc(Nc3ncc(Cl)c(N(C)C4CC4)n3)c2)C1=O (stereo not shown) [Example 182],–,2.21[b],–
COCC(C)Nc1nc(Nc2cccc(N3C(=O)OC[C@H]3C)c2)ncc1Br (stereo partly shown) [Example 183],–,1.71[b],–
C[C@@H]1C[C@H](C)N(c2cccc(Nc3ncc(Br)c(NCC(F)F)n3)c2)C1=O [Example 189],–,3.24[b],–
CC1(C)CC(=O)N(c2cccc(Nc3ncc(C(F)(F)F)c(NC4CCC4)n3)c2)C1=O [Example 192],–,3.03[b],–
O=C1CCCN1c1cc(Nc2ncc(C(F)(F)F)c(NCC3CC3)n2)ccc1F [Example 201],–,2.41[b],–
CC1CC1Nc1nc(Nc2cccc(N3CCOC3=O)c2)ncc1Cl (stereo not shown) [Example 205],–,1.67[b],–
O=c1ccccn1-c1cccc(Nc2ncc(Br)c(NC3CCC3)n2)c1 [Example 221],–,1.71[b],–

SMILES,chromatographic logP [1],log p [2],other results
O=C1CCCN1c1cccc(Nc2ncc(Cl)c(N3CCCC3)n2)c1 [Example 222],–,1.67[b],–
CCC1CC1Nc1nc(Nc2cccc(N3CCCC3=O)c2)ncc1Cl (stereo not shown) [Example 242],–,1.99[b],–
CCC1CCC(=O)N1c1cccc(Nc2ncc(C(F)(F)F)c(NC3CC3)n2)c1 (stereo not shown) [Example 255],–,2.75[b],–
O=C1N(CCCl)CCN1c1cccc(Nc2ncc(Br)c(NC3CC3)n2)c1 [Example 285],–,1.92[b],–
O=C1N(CCCl)CCN1c1cccc(Nc2ncc(Cl)c(NC3CC3)n2)c1 [Example 286],–,1.82[b],–
CC1CC(Nc2nc(Nc3cccc(N4C(=O)CCC4=O)c3)ncc2Br)C1 (stereo not shown) [Example 288],–,1.86[b],–
CC1CC(Nc2nc(Nc3cccc(N4CCN(C)C4=O)c3)ncc2Br)C1 (stereo not shown) [Example 290],–,2[b],–
CC1CC(Nc2nc(Nc3cccc(N4C(=O)C(C)CC4C)c3)ncc2Br)C1 (stereo not shown) [Example 291],–,2.66[b],–
CN1CCN(c2cccc(Nc3ncc(C(F)(F)F)c(NC4CC4)n3)c2)C1=O [Example 293],–,2.22[b],–
CN1CCN(c2cccc(Nc3ncc(I)c(NC4CC4)n3)c2)C1=O [Example 296],–,1.57[b],–
CC(CF)Nc1nc(Nc2cccc(N3CCCC3=O)c2)ncc1C(F)(F)F (stereo not shown) [Example 298],–,2.48[b],–
O=C1CCCN1c1cccc(Nc2ncc(C(F)(F)F)c(NC3CCCC3)n2)c1 [Example 303],–,3.04[b],–
CCCNc1nc(Nc2cccc(N3CCCC3=O)c2)ncc1Cl [Example 307],–,1.49[b],–
CC1CC(Nc2nc(Nc3cccc(N4C(=O)CCC4C)c3)ncc2Br)C1 (stereo not shown) [Example 317],–,2.17[b],–
CN(c1nc(Nc2cccc(N3CCCC3=O)c2)ncc1C(F)(F)F)C1CCCC1 [Example 319],–,3.56[b],–
O=C1CCCN1c1cccc(Nc2ncc(C(F)(F)F)c(N3CCCCC3)n2)c1 [Example 320],–,3.29[b],–
CC1(C)CC1Nc1nc(Nc2cccc(N3CCCC3=O)c2)ncc1C(F)(F)F (stereo not shown) [Example 321],–,3.04[b],–
O=C1CCCN1c1cccc(Nc2ncc(C(F)(F)F)c(NC3COC3)n2)c1 [Example 322],–,1.84[b],–
CNc1nc(Nc2cccc(N3CCCC3=O)c2)ncc1C(F)(F)F [Example 323],–,1.63[b],–
